According to PubChem BioAssay (NCI):
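Cultured in 96-well plates, cells were exposed to test compound for 48 hours across five concentrations. At the TGI there is no net growth.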

What was measured:
Assay in all cases: DTP human tumour cell line panel, 48 h
KM12 colon = system: KM12 colon
OVCAR-5 ovarian = system: OVCAR-5 ovarian
ACHN renal = system: ACHN renal
NCI-H522 lung = system: NCI-H522 lung
RPMI-8226 leukemia = system: RPMI-8226 leukemia
SF-295 CNS = system: SF-295 CNS
DU-145 prostate = system: DU-145 prostate
UO-31 renal = system: UO-31 renal
SNB-19 CNS = system: SNB-19 CNS
BT-549 breast = system: BT-549 breast
NCI-H23 lung = system: NCI-H23 lung
MDA-MB-435 = system: MDA-MB-435
SK-MEL-28 melanoma = system: SK-MEL-28 melanoma
NCI-H226 lung = system: NCI-H226 lung
HOP-92 NSCLC = system: HOP-92 NSCLC
PC-3 prostate = system: PC-3 prostate
HCC-2998 colon = system: HCC-2998 colon
SK-MEL-5 melanoma = system: SK-MEL-5 melanoma
HOP-62 NSCLC = system: HOP-62 NSCLC
MDA-MB-231 breast = system: MDA-MB-231 breast
SF-268 CNS = system: SF-268 CNS
SN12C renal = system: SN12C renal
T-47D breast = system: T-47D breast
SW-620 colon = system: SW-620 colon
TK-10 renal = system: TK-10 renal
CCRF-CEM leukemia = system: CCRF-CEM leukemia
COLO 205 colon = system: COLO 205 colon
HS 578T breast = system: HS 578T breast
HCT-15 colon = system: HCT-15 colon
RXF 393 renal = system: RXF 393 renal
UACC-62 melanoma = system: UACC-62 melanoma
786-0 renal = system: 786-0 renal
K-562 leukemia = system: K-562 leukemia
A549 NSCLC = system: A549 NSCLC
SR leukemia = system: SR leukemia
EKVX NSCLC = system: EKVX NSCLC
OVCAR-8 ovarian = system: OVCAR-8 ovarian
UACC-257 melanoma = system: UACC-257 melanoma
IGROV1 ovarian = system: IGROV1 ovarian
MOLT-4 leukemia = system: MOLT-4 leukemia
SF-539 CNS = system: SF-539 CNS
A498 renal = system: A498 renal
HL-60(TB) leukemia = system: HL-60(TB) leukemia
M14 melanoma = system: M14 melanoma
LOX IMVI melanoma = system: LOX IMVI melanoma
MCF7 breast = system: MCF7 breast
NCI/ADR-RES ovarian = system: NCI/ADR-RES ovarian
SNB-75 CNS = system: SNB-75 CNS
SK-MEL-2 melanoma = system: SK-MEL-2 melanoma
U251 CNS = system: U251 CNS
SK-OV-3 ovarian = system: SK-OV-3 ovarian
CAKI-1 renal = system: CAKI-1 renal
HCT-116 colon = system: HCT-116 colon
HT29 colon = system: HT29 colon
OVCAR-4 ovarian = system: OVCAR-4 ovarian
OVCAR-3 ovarian = system: OVCAR-3 ovarian
NCI-H460 lung = system: NCI-H460 lung

Measured: TGI

O[C@H]1[C@H](O)[C@H](O)CN2CCC[C@@H](O)[C@H]12
not listed: NCI-H460 lung
> 100 µM: all other assays above

O=C(CCc1ccccc1CO)NCCc1ccccc1
not listed: LOX IMVI melanoma
> 100 µM: all other assays above
